Calls of active or inactive are those of the source. No cut-off for these calls is given here.
Key:
[1] = Chemical stability of the compound in at pH 7.4 measured at 6 hrs by HPLC based non-enzymatic stability assay; type: physicochemical; conditions: buffer, read-out: Stability
[2] = Chemical stability of the compound in at pH 7.4 measured at 12 hrs by HPLC based non-enzymatic stability assay; type: physicochemical; conditions: buffer, read-out: Stability
[3] = Chemical stability of the compound in at pH 7.4 measured at 24 hrs by HPLC based non-enzymatic stability assay; type: physicochemical; conditions: buffer, read-out: Stability
[4] = Chemical stability of the compound in at pH 7.4 measured at 48 hrs by HPLC based non-enzymatic stability assay; type: physicochemical; conditions: buffer, read-out: Stability
[5] = Chemical stability of the compound in at pH 7.4 measured at 72 hrs by HPLC based non-enzymatic stability assay; type: physicochemical; conditions: buffer, read-out: Stability
[6] = molecular target: T1, Protein cereblon/Serine/threonine-protein kinase ATR (Homo sapiens) (UniProt Q13535+Q96SW2); assay: PROTAC activity at ATR/CRBN in patient derived human MIA PaCa-2 cells assessed as reduction in protein level at 1 uM measured after 24 hrs by immunoblot analysis relative to untreated control; type: cell-based
T1 sequence (Q13535 whole entry, looked up): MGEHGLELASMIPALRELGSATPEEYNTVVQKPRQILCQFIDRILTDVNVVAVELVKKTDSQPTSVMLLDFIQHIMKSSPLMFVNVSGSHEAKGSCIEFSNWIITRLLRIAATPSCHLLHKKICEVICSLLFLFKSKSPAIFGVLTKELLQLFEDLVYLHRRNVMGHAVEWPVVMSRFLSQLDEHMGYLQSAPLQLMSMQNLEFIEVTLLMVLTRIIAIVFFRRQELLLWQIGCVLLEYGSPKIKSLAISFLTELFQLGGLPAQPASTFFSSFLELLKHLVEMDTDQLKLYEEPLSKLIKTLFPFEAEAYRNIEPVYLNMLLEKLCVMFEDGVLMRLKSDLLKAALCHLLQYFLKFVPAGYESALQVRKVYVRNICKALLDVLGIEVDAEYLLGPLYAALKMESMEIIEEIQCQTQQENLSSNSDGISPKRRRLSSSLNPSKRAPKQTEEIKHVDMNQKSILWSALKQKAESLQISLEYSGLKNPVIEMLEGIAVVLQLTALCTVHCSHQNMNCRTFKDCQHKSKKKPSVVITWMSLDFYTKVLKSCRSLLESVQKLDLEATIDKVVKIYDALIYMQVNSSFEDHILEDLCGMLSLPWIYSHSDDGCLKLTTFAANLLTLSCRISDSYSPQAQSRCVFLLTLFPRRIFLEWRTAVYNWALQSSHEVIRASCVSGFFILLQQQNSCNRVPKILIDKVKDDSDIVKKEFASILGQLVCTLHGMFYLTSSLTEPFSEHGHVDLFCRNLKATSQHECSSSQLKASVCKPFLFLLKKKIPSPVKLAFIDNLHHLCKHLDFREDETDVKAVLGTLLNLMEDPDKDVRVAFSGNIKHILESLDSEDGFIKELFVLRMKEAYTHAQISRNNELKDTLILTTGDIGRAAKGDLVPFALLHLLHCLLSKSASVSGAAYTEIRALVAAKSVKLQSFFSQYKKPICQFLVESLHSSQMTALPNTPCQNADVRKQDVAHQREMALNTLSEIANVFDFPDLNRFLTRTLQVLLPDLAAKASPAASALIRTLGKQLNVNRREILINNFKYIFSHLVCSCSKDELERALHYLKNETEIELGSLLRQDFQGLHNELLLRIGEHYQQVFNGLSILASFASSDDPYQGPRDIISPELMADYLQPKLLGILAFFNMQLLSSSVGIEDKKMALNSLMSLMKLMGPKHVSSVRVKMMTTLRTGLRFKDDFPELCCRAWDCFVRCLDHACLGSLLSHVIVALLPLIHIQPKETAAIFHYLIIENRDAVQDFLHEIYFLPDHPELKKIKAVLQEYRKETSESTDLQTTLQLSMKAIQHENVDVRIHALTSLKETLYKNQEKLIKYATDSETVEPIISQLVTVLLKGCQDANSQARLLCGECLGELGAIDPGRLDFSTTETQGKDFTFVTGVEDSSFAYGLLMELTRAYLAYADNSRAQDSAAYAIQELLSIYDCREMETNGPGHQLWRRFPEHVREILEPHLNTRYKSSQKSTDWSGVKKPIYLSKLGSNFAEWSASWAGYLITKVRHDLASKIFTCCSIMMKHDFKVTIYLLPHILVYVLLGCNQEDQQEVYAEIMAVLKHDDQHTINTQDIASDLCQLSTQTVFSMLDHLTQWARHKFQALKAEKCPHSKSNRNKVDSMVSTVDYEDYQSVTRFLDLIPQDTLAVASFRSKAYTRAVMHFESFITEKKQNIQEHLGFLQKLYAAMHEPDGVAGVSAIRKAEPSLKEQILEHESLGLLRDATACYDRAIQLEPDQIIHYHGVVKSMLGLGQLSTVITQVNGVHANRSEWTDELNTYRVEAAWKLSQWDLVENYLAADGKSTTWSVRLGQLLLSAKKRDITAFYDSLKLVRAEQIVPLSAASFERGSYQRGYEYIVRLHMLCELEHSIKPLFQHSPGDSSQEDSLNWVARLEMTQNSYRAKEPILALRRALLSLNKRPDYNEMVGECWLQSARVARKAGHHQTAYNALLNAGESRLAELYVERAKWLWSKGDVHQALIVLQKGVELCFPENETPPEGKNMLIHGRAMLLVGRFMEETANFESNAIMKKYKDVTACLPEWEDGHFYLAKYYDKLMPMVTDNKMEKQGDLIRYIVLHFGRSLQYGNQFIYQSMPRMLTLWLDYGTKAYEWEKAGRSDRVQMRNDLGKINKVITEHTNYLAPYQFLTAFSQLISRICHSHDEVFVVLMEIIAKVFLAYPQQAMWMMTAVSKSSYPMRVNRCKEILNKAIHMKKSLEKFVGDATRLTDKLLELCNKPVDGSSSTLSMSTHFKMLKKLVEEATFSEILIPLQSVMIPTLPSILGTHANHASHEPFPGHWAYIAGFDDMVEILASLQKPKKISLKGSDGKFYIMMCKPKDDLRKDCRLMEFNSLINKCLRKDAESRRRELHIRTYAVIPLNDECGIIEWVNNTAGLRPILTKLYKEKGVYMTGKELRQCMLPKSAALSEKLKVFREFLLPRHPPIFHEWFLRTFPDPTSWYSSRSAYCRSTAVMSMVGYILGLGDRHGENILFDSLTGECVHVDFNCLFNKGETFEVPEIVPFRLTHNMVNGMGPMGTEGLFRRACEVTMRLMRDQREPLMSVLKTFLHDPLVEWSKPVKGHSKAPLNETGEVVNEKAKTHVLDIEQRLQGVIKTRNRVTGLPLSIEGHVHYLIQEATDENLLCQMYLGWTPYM
T1 sequence (Q96SW2 whole entry, looked up): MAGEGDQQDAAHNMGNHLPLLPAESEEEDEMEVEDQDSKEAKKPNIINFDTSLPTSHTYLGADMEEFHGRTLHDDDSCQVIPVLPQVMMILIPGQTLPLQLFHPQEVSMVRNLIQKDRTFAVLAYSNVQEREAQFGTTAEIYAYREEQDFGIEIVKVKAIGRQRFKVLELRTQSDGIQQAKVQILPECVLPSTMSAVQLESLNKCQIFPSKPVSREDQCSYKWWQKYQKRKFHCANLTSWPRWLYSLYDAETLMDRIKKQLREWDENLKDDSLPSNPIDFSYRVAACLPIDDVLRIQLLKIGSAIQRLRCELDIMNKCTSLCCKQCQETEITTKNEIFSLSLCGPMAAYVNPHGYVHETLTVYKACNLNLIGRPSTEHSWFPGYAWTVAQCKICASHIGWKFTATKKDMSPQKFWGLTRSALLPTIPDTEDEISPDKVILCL

HEK293 = assay: Cytotoxicity against human HEK293 cells assessed as cell viability at 50 uM incubated for 24 hrs by Alamar Blue reagent based assay relative to control; type: functional; conditions: read-out: Activity
[7] = Plasma protein binding in human plasma; type: ADME, cell-free; conditions: read-out: PPB (converted)
[8] = Plasma stability in human plasma assessed as compound remaining at 20 uM measured after 24 hrs by HPLC analysis; type: ADME, cell-free; conditions: read-out: Stability
ATR/ATRIP = ATR/ATRIP (Homo sapiens, UniProt Q13535); assay: Inhibition of human ATR/ATRIP complex using GST-cMyc-p53 substrate measured after 30 mins by HTRF based non-radioactive in vitro assay; type: protein-complex assay
Chain of ATR/ATRIP (Q13535 whole entry): as the sequence (Q13535 whole entry, looked up) above
Chain of ATR/ATRIP (Q8WXE1 whole entry, further chain): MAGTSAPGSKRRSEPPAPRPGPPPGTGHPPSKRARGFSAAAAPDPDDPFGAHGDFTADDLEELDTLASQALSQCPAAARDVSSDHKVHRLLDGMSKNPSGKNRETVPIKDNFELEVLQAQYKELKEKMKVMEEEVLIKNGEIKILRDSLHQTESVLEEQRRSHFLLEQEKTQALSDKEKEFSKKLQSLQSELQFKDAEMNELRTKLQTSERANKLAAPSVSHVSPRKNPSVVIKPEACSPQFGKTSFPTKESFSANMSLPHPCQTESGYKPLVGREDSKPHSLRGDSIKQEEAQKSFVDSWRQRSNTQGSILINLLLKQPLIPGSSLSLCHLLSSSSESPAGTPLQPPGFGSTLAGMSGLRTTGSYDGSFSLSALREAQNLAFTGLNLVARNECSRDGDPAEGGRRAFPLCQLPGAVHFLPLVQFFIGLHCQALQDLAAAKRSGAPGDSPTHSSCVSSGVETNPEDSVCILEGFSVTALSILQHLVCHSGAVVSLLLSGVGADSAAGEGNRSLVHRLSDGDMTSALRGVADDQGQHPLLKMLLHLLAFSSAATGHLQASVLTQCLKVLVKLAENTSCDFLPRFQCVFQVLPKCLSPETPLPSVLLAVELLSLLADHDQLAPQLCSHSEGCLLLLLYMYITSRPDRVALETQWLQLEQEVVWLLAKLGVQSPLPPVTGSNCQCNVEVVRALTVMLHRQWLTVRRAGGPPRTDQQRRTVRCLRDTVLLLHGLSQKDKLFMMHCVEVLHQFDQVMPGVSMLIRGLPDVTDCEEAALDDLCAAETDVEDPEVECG

[9] = molecular target: T1, Protein cereblon/Serine/threonine-protein kinase ATR (Homo sapiens); assay: PROTAC activity at ATR/CRBN in patient derived human MIA PaCa-2 cells assessed as reduction in protein level at 500 nM measured after 24 hrs by immunoblot analysis relative to untreated control; type: cell-based; design: scale not given: the % may be the effect or the level left
[10] = molecular target: T1, Protein cereblon/Serine/threonine-protein kinase ATR (Homo sapiens); assay: PROTAC activity at ATR/CRBN in patient derived human MIA PaCa-2 cells assessed as reduction in protein level at 2 uM measured after 24 hrs by immunoblot analysis relative to untreated control; type: cell-based; design: scale not given: the % may be the effect or the level left
MIA PaCa-2 [11] = assay: Induction of apoptosis in human MIA PaCa-2 cells assessed as cell death at 2 uM incubated for 24 hrs by Annexin-V/PI based flow cytometry; type: functional
MIA PaCa-2 [12] = assay: Effect on GSPT1 expression in human MIA PaCa-2 cells at 0.5 to 2 uM incubated for 24 hrs by immunoblot analysis; type: functional, cell-based; conditions: dose 0.5-2 µM
[13] = molecular target: T1, Protein cereblon/Serine/threonine-protein kinase ATR (Homo sapiens); assay: PROTAC activity at ATR/CRBN in human HeLa cells assessed as reduction in protein level at 500 nM measured after 24 hrs by immunoblot analysis relative to untreated control; type: cell-based; design: scale not given: the % may be the effect or the level left
[14] = molecular target: T1, Protein cereblon/Serine/threonine-protein kinase ATR (Homo sapiens); assay: PROTAC activity at ATR/CRBN in human HeLa cells assessed as reduction in p-ATR level at 500 nM measured after 24 hrs by immunoblot analysis relative to untreated control; type: cell-based; design: scale not given: the % may be the effect or the level left
HeLa [15] = assay: Effect on ATM expression in human HeLa cells at 500 nM incubated for 24 hrs by immunoblot analysis; type: functional, cell-based
HeLa [16] = assay: Effect on DNA-PKcs expression in human HeLa cells at 500 nM incubated for 24 hrs by immunoblot analysis; type: functional, cell-based
[17] = molecular target: T1, Protein cereblon/Serine/threonine-protein kinase ATR (Homo sapiens); assay: PROTAC activity at ATR/CRBN in patient derived human MIA PaCa-2 cells assessed as reduction in protein level at 2 uM measured after 3 hrs in presence of 50 nM bortezomib by immunoblot analysis; type: cell-based
[18] = molecular target: T1, Protein cereblon/Serine/threonine-protein kinase ATR (Homo sapiens); assay: PROTAC activity at ATR/CRBN in patient derived human MIA PaCa-2 cells assessed as reduction in protein level at 2 uM measured after 3 hrs in presence of 10 uM MG132 by immunoblot analysis; type: cell-based
[19] = molecular target: T1, Protein cereblon/Serine/threonine-protein kinase ATR (Homo sapiens); assay: PROTAC activity at ATR/CRBN in patient derived human MIA PaCa-2 cells assessed as reduction in protein level at 2 uM measured after 24 hrs by immunoblot analysis relative to irinotecan; type: cell-based; design: scale not given: the % may be the effect or the level left
[20] = molecular target: T1, Protein cereblon/Serine/threonine-protein kinase ATR (Homo sapiens); assay: PROTAC activity at ATR/CRBN in patient derived human MIA PaCa-2 cells assessed as reduction in irinotecan-induced p-CHK1 (S345) level at 2 uM measured after 24 hrs by immunoblot analysis relative to control; type: cell-based
MIA PaCa-2 [21] = assay: Effect on CRBN expression in patient derived siCRBN transfected human MIA PaCa-2 cells at 2 uM measured after 24 hrs by immunoblot analysis; type: functional, cell-based
[22] = molecular target: T1, Protein cereblon/Serine/threonine-protein kinase ATR (Homo sapiens); assay: PROTAC activity at ATR/CRBN in patient derived human MIA PaCa-2 cells assessed as reduction in p-ATR (T1989) level at 2 uM measured after 24 hrs by immunoblot analysis relative to control; type: cell-based
[23] = molecular target: T1, Protein cereblon/Serine/threonine-protein kinase ATR (Homo sapiens); assay: PROTAC activity at ATR/CRBN in patient derived human MIA PaCa-2 cells assessed as reduction in protein level at 0.1 to 5 uM measured after 24 hrs by immunoblot analysis relative to untreated control; type: cell-based; conditions: dose 0.1-5 µM
MIA PaCa-2 [24] = assay: Induction of […] degradation in patient derived human MIA PaCa-2 cells assessed as reduction in protein level at 2 uM measured after 24 hrs by immunoblot analysis; type: functional, cell-based
[25] = molecular target: T2, von Hippel-Lindau disease tumor suppressor/Serine/threonine-protein kinase ATR (Homo sapiens) (UniProt Q13535+P40337); assay: PROTAC activity at ATR/VHL in patient derived human MIA PaCa-2 cells assessed as protein degradation at 2 uM measured after 24 hrs by immunoblot analysis relative to untreated control; type: cell-based
T2 sequence (P40337 whole entry, looked up): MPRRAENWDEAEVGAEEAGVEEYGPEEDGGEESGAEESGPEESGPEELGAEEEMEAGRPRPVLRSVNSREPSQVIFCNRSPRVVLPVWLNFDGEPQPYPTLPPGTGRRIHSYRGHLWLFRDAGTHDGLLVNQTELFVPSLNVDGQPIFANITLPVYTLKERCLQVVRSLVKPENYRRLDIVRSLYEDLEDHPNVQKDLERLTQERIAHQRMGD
T2 sequence (Q13535 whole entry, looked up): as the sequence (Q13535 whole entry, looked up) above

[26] = molecular target: T2, von Hippel-Lindau disease tumor suppressor/Serine/threonine-protein kinase ATR (Homo sapiens); assay: PROTAC activity at ATR/VHL in patient derived human MIA PaCa-2 cells assessed as protein degradation at 5 uM measured after 24 hrs by immunoblot analysis relative to untreated control; type: cell-based
MIA PaCa-2 [27] = assay: Effect on CRBN expression in patient derived siCRBN transfected human MIA PaCa-2 cells at 5 uM measured after 24 hrs by immunoblot analysis; type: functional, cell-based
[28] = molecular target: T1, Protein cereblon/Serine/threonine-protein kinase ATR (Homo sapiens); assay: PROTAC activity at ATR/CRBN in patient derived human MIA PaCa-2 cells assessed as reduction in protein level at 5 uM measured after 24 hrs by immunoblot analysis relative to untreated control; type: cell-based; design: scale not given: the % may be the effect or the level left

Compound	remaining at 6 h [1]	remaining at 12 h [2]	remaining at 24 h [3]	remaining at 48 h [4]	remaining at 72 h [5]	viability at 50 µM (HEK293)	other results
Nc1ncc(-c2ccc(S(=O)(=O)NCCCCCCC(=O)NCCCC#Cc3cccc4c3CN(C3CCC(=O)NC3=O)C4=O)cc2)nc1C(=O)Nc1ccccc1 (stereo unspecified)	102%	103%	105%	105%	109%	109%	Activity [6]: Active
Nc1ncc(-c2ccc(S(=O)(=O)NCCCCCC(=O)NCCCC#Cc3cccc4c3CN(C3CCC(=O)NC3=O)C4=O)cc2)nc1C(=O)Nc1ccccc1 (stereo unspecified)	102%	104%	106%	110%	115%	77.1%	fraction unbound [7]: 0.106; remaining at 24 h, 20 µM [8]: 75%; IC50 (ATR/ATRIP): > 10000 nM; Activity [9]: 40%; Activity [10]: 40%; Activity (MIA PaCa-2 [11]): inactive; Activity (MIA PaCa-2 [12]): inactive; Activity [13]: 60%; Activity [14]: 60%; Activity (HeLa [15]): inactive; Activity (HeLa [16]): inactive; Activity [17]: inactive; Activity [18]: inactive; Activity [19]: 80%; fold change (FC) [20]: 0.5; Activity (MIA PaCa-2 [21]): inactive; fold change (FC) [22]: 0.1
Nc1ncc(-c2ccc(S(=O)(=O)NCCCCCCC(=O)NCCOc3ccc(C4CCC(=O)NC4=O)cc3)cc2)nc1C(=O)Nc1ccccc1 (stereo unspecified)	101%	103%	102%	102%	101%	95.7%	Activity [23]: inactive
CS(=O)(=O)c1ccc(-c2cnc(N)c(C(=O)Nc3ccccc3)n2)cc1							Activity (MIA PaCa-2 [24]): inactive
Cc1ncsc1-c1ccc(CNC(=O)[C@@H]2C[C@@H](O)CN2C(=O)[C@@H](NC(=O)CCOCCOCCOCCNS(=O)(=O)c2ccc(-c3cnc(N)c(C(=O)Nc4ccccc4)n3)cc2)C(C)(C)C)cc1	100%	100%	102%	103%	105%	45.7%	Activity [25]: inactive; Activity [26]: inactive
Cc1ncsc1-c1ccc(CNC(=O)[C@@H]2C[C@@H](O)CN2C(=O)[C@@H](NC(=O)CCCCCNS(=O)(=O)c2ccc(-c3cnc(N)c(C(=O)Nc4ccccc4)n3)cc2)C(C)(C)C)cc1	99%	99%	100%	100%	100%	60.3%	Activity [25]: inactive; Activity [26]: inactive
CCc1c2c(nc3ccc(OC(=O)N4CCC(N5CCCCC5)CC4)cc13)-c1cc3c(c(=O)n1C2)COC(=O)[C@]3(O)CC							Activity (MIA PaCa-2 [27]): inactive
CNS(=O)(=O)c1ccc(-c2cnc(N)c(C(=O)Nc3ccccc3)n2)cc1	99%	100%	100%	102%	104%	83.7%	fraction unbound [7]: 0.225; remaining at 24 h, 20 µM [8]: > 92%; IC50 (ATR/ATRIP): 1000 nM
Nc1ncc(-c2ccc(S(=O)(=O)NCCCCCC(=O)N3CCN(c4ccc5c(c4)C(=O)N(C4CCC(=O)NC4=O)C5=O)CC3)cc2)nc1C(=O)Nc1ccccc1 (stereo unspecified)	101%	101%	96%	87%	72%	96%	Activity [28]: 40%
Nc1ncc(-c2ccc(S(=O)(=O)NCCCCCCCC(=O)NCCOc3ccc(C4CCC(=O)NC4=O)cc3)cc2)nc1C(=O)Nc1ccccc1 (stereo unspecified)	100%	99%	100%	100%	100%	62.9%	Activity [23]: inactive
Cc1ncsc1-c1ccc(CNC(=O)[C@@H]2C[C@@H](O)CN2C(=O)[C@@H](NC(=O)CCOCCOCCNS(=O)(=O)c2ccc(-c3cnc(N)c(C(=O)Nc4ccccc4)n3)cc2)C(C)(C)C)cc1	100%	100%	101%	101%	102%	44.5%	Activity [25]: inactive; Activity [26]: inactive

From ChEMBL document CHEMBL5543092, “Design, synthesis, and biological characterization of proteolysis targeting chimera (PROTACs) for the ataxia telangiectasia and RAD3-related (ATR) kinase” (Eur J Med Chem, 2024)
